Measured values taken from patent publication US10660877B2 (BRISTOL-MYERS SQUIBB COMPANY, priority 2016, dated 2020).
Where two headings read alike, the source gives them in different places.

Columns and labels:
human TLR7 = human TLR7 (Homo sapiens (Human), UniProt Q9NYK1); test: TLR7 inhibition reporter assay (HEK-Blue cells, SEAP reporter, gardiquimod stimulation); assay type: cell-based
human TLR8 = human TLR8 (Homo sapiens (Human), UniProt Q9NR97); test: TLR8 inhibition reporter assay (HEK-Blue cells, SEAP reporter, R848 stimulation);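 note: compounds tested from 0.05 nM to 50 µM, 22 h at 37 °C, SEAP measured with HEK-Blue Detection, inhibition relative to agonist plus DMSO versus a known inhibitor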
human TLR8, sequence (Q9NR97 27-1041): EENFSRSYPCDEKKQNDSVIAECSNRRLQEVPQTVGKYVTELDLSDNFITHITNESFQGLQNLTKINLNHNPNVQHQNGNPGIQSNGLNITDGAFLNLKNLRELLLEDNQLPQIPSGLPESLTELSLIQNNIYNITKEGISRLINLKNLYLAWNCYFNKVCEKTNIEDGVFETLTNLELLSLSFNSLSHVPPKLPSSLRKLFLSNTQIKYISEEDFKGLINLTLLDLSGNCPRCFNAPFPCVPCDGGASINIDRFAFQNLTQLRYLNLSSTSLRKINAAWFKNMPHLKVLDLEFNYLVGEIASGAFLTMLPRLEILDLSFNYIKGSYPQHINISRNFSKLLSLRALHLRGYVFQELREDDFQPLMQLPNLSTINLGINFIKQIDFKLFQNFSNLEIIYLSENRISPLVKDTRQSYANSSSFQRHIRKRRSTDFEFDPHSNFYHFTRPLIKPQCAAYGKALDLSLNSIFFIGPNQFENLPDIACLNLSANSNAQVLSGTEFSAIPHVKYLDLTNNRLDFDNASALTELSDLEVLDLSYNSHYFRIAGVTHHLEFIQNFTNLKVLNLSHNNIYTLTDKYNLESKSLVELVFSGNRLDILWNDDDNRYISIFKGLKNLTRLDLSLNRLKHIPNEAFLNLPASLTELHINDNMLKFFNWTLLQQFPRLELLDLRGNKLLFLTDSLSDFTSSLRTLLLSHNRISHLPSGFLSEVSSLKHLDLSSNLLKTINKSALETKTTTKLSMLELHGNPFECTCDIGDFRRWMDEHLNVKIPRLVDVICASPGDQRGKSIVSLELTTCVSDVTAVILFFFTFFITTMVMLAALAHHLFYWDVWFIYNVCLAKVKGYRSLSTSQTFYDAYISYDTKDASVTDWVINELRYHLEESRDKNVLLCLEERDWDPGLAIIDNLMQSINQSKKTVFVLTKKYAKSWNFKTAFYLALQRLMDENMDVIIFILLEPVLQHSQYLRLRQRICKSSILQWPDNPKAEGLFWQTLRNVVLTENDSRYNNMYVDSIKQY

human TLR9 = human TLR9 (Homo sapiens (Human), UniProt Q9NR96); test: TLR9 inhibition reporter assay (HEK-Blue cells, SEAP reporter, ODN2006 stimulation);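 note: compounds tested over 0.05 nM to 50 µM, 22 h incubation, inhibition taken as SEAP signal drop from agonist plus DMSO wells toward a known inhibitor control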
human TLR9, sequence (Q9NR96 26-1032): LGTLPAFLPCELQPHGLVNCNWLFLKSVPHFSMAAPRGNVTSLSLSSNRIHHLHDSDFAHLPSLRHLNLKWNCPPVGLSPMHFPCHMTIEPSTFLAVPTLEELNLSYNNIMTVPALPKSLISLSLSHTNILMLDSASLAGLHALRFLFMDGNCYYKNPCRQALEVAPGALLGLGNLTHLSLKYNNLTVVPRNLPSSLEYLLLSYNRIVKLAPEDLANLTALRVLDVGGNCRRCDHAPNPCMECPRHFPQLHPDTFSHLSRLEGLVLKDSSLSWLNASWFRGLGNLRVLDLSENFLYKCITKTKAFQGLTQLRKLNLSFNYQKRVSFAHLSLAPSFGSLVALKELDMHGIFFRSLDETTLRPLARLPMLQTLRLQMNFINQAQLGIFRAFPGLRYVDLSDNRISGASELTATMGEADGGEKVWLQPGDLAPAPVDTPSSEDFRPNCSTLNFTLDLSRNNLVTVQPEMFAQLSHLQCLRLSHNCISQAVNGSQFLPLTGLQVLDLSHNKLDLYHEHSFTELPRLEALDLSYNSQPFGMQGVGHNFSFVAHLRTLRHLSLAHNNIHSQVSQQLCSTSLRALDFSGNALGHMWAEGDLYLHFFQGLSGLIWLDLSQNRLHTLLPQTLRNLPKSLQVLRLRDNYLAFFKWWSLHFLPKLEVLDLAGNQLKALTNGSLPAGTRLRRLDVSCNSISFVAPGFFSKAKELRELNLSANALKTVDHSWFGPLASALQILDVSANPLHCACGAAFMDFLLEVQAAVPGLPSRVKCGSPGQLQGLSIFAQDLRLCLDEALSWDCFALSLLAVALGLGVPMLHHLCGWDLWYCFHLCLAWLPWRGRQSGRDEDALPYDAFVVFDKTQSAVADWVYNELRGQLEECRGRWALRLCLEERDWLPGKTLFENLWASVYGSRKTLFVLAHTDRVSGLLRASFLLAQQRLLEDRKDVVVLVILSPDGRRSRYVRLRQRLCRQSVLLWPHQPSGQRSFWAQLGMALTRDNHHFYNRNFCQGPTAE

[1] = HEK-Blue cells overexpressing human TLR7, gardiquimod 7.5 μM
[2] = read-out: TLR8 IC50, HEK-Blue cells overexpressing human TLR8, R848 15.9 μM
[3] = read-out: TLR9 IC50, HEK-Blue cells overexpressing human TLR9, ODN2006 5 nM

human TLR7, sequence (Q9NYK1 27-1049): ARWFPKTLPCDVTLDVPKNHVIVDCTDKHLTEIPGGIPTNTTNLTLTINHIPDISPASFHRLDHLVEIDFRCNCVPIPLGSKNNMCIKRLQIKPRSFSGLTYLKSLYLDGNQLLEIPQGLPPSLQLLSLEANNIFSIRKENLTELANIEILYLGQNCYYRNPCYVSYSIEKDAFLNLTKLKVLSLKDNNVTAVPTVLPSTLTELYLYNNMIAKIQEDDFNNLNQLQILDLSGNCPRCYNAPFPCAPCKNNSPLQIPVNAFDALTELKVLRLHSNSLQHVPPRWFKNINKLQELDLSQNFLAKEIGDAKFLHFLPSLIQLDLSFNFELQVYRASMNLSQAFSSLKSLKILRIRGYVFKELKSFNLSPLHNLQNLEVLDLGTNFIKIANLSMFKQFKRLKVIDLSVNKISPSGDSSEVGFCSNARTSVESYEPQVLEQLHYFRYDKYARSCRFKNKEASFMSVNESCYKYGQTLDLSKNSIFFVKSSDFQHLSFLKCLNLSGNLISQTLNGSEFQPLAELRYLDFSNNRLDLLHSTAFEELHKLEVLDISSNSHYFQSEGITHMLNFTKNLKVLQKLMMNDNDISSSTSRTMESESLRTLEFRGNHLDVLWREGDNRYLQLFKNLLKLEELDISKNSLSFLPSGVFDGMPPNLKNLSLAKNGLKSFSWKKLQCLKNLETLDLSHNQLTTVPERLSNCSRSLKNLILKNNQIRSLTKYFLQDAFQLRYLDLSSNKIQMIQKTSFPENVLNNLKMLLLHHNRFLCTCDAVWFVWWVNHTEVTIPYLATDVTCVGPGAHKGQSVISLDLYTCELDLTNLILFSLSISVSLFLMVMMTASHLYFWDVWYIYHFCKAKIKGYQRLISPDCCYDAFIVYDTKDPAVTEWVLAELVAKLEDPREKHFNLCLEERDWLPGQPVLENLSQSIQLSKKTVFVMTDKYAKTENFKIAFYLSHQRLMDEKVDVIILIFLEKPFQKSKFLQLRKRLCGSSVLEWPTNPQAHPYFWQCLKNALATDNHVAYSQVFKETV

| Structure (SMILES) | IC50 (human TLR7; [1]) [nM] | IC50 (human TLR8; [2]) [nM] | IC50 (human TLR9; [3]) [nM] | IC50 (human TLR7; HEK-Blue cells, gardiquimod 7.5 μM) [nM] | IC50 (human TLR8; read-out: TLR8 IC50, HEK-Blue cells, R848 15.9 μM) [nM] | IC50 (human TLR9; read-out: TLR9 IC50, HEK-Blue cells, ODN2006 5 nM) [nM] |
| --- | --- | --- | --- | --- | --- | --- |
| Cc1cc(-c2[nH]c3ccc(C4CCN(C(=O)CN5CCCC(F)C5)CC4)cc3c2C(C)C)cc(C)n1 (stereo not drawn) [Example 363, 1-(4-(2-(2,6-dimethylpyridin-4-yl)-3-isopropyl-1H-indol-5-yl)piperidin-1-yl)-2-(3-fluoropiperidin-1-yl)ethan-1-one] | 8.3 | 34.2 | 1800 |  |  |  |
| CCc1c(-c2ccnc(C)c2)[nH]c2ccc(C3CCN(C(=O)C4CCN(C)CC4)CC3)cc12 [Example 593, (4-(3-ethyl-2-(2-methylpyridin-4-yl)-1H-indol-5-yl)piperidin-1-yl)(1-methylpiperidin-4-yl)methanone] | 43 | 17.4 | 513 |  |  |  |
| Cc1cc(-c2[nH]c3ccc(C4CCNCC4)cc3c2C(C)C)c(Br)c(C)n1 [Example 40, 2-(3-bromo-2,6-dimethylpyridin-4-yl)-3-isopropyl-5-(piperidin-4-yl)-1H-indole] | 16.5 | 4.1 | 1480 |  |  |  |
| Cc1cc(-c2[nH]c3ccc(C4CCN(C(=O)CN5C(C)CCC5C)CC4)cc3c2C(C)C)cc(C)n1 (stereo not drawn) [Example 368, 1-(4-(2-(2,6-dimethylpyridin-4-yl)-3-isopropyl-1H-indol-5-yl)piperidin-1-yl)-2-(2,5-dimethylpyrrolidin-1-yl)ethan-1-one] | 4.5 | 21 | 742 |  |  |  |
| Cc1cc(-c2[nH]c3ccc(C4CCN(C(=O)C5CCN(C(C)C)CC5)CC4)cc3c2C(C)C)ccn1 [Example 563, (4-(3-isopropyl-2-(2-methylpyridin-4-yl)-1H-indol-5-yl)piperidin-1-yl)(1-isopropylpiperidin-4-yl)methanone] | 16.5 | 18.9 | 1150 |  |  |  |
| Cc1cc(-c2[nH]c3ccc(C4CCN(CC(O)CO)CC4)cc3c2C(C)C)cc(C)n1 (stereo not drawn) [Example 854, 3-(4-(2-(2,6-dimethylpyridin-4-yl)-3-isopropyl-1H-indol-5-yl)piperidin-1-yl) propane-1,2-diol] |  |  |  | 1 | 1.8 | 159 |
| Cc1cc(-c2[nH]c3ccc(C4CCN(C(=O)CN(C)C)CC4)cc3c2C(C)C)ccn1 [Example 509, 2-(dimethylamino)-1-(4-(3-isopropyl-2-(2-methylpyridin-4-yl)-1H-indol-5-yl)piperidin-1-yl)ethan-1-one] | 20 | 21.9 | 3710 |  |  |  |
| Cc1cc(-c2[nH]c3ccc(C4CCN(C(=O)CN5CCCC5C)CC4)cc3c2C(C)C)cc(C)n1 (stereo not drawn) [Example 366, 1-(4-(2-(2,6-dimethylpyridin-4-yl)-3-isopropyl-1H-indol-5-yl)piperidin-1-yl)-2-(2-methylpyrrolidin-1-yl)ethan-1-one] | 3.2 | 10.9 | 370 |  |  |  |
| Cc1cc(-c2[nH]c3ccc(C4CCN(C5COC5)CC4)cc3c2C(C)C)c(F)cn1 [Example 721, 2-(5-fluoro-2-methylpyridin-4-yl)-3-isopropyl-5-(1-(oxetan-3-yl)piperidin-4-yl)-1H-indole] | 13.8 | 7.4 | 19800 |  |  |  |
| Cc1cc(-c2[nH]c3ccc(C4CCN(C(=O)CN5CCN(CCO)CC5)CC4)cc3c2C(C)C)cc(C)n1 [Example 171, 1-(4-(2-(2,6-dimethylpyridin-4-yl)-3-isopropyl-1H-indol-5-yl)piperidin-1-yl)-2-(4-(2-hydroxyethyl)piperazin-1-yl)ethan-1-one] | 2.6 | 18.3 | 542 |  |  |  |
| COCCOC(=O)N1CCC(c2ccc3[nH]c(-c4ccnc(C)c4)c(C(C)C)c3c2)CC1 [Example 561, 2-methoxyethyl 4-(3-isopropyl-2-(2-methylpyridin-4-yl)-1H-indol-5-yl)piperidine-1-carboxylate] | 202 | 363 | 43900 |  |  |  |
